Laboratory results taken from patent publication US20060014723A1, “Anti-parasitic uses of borinic acid complexes” (priority 2004, published 2006).
Values after ≈ are worked out from the molar mass of the structure shown.

Columns and labels:
[1] = test system: T. b. rhodesiense STIB 900; experiment: African sleeping sickness in vitro screening model (Alamar Blue); format: cell-based, Trypanosoma brucei rhodesiense; conditions: for IC50: Trypanosoma brucei
Summary of the method: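 Bloodstream-form trypomastigotes, 8×10^3/well, were grown in supplemented MEM with 15% horse serum, without hypoxanthine, at 37 °C in 5% CO2. They were exposed for 72 h to seven 3-fold dilutions from 90 to 0.123 μg/mL. Resazurin (Alamar Blue) was added for 2 h, fluorescence read at ex 536/em 588 nm, and IC50 taken as the mean of four values.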

[2] = test system: P. falciparum K1; experiment: Malaria in vitro screening model (3H-hypoxanthine incorporation); format: cell-based, Plasmodium falciparum; conditions: for IC50: Plasmodium falciparum, K1
Protocol: […] P. falciparum K1 is used in this study. K1 (a clone originating from Thailand) is resistant to chloroquine and pyrimethamine. The strains are maintained in RPMI 1640 medium with 0.36 mM hypoxanthine, supplemented with 25 mM N 2-hydroxyethyipiperazine-N-2-ethane-sulphonic acid (HEPES), 25 mM NaHCO3, neomycin (100 U/mL) and 5 g/L of ALBUMAX® II (lipid-rich bovine serum albumin, GIBCO, Grand Island, N.Y., USA), together with 5% washed human A+ erythrocytes. All cultures and assays are conducted at 37° C. under an atmosphere of 4% CO2, 3% O2 and 93% N2. Cultures are kept in incubation chambers filled with the gas mixture. Subcultures are diluted to a parasitemia of between 0.1 and 0.5% and the medium is changed daily.
Antimalarial activity is assessed using an adaptation of the procedures described by Desjardins et al. (Antimicrob. Agents Chemother. 16:710-718, 1979), and Matile and Pink (In: Lefkovits, I. and Pernis, B. (Eds.), Immunological Methods Vol. IV, Academic Press, San Diego, pp. 221-234, 1990).
Stock drug solutions are prepared in 100% dimethylsulfoxide (DMSO) at 10 mg/mL, and heated or sonicated if necessary to dissolve the sample. After use, the stocks are kept at −20° C. For the assays, the compound is further diluted in serum-free culture medium and finally to the appropriate concentration in complete medium without hypoxanthine.
Assays are performed in sterile 96-well microtiter plates, each well containing 200 μl of parasite culture (0.15% parasitemia, 2.5% hematocrit) with or without serial drug solutions. Seven 2-fold dilutions are used, covering a range from […] to 0.078 μg/mL. For active compounds the highest concentration is lowered (e.g., to […]); for plant extracts the highest concentration is increased to 50 μg/mL. […] After 48 hours of incubation at 37° C., 0.5 μCi ^3H-hypoxanthine is added to each well. Cultures are incubated for a further 24 h before being harvested onto glass-fiber filters and washed with distilled water. The radioactivity is counted using a Betaplate liquid scintillation counter (Wallac, Zurich, Switzerland). The results are recorded as counts per minute per well at each drug concentration and expressed as percentage of the untreated controls. IC50 values are calculated from the sigmoidal inhibition curves using Microsoft EXCEL.

[3] = test system: Trypanosoma cruzi Tulahuen C2C4 strain; experiment: Chagas disease in vitro screening model (beta-galactosidase strain in L-6 cells); format: cell-based; conditions: for IC50: Trypanosoma cruzi, TULAHUEN, L6, read-out: T. cruzi IC50
Summary of the method: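 L-6 rat myoblasts in RPMI 1640/10% FBS at 37 °C were infected with 5×10^3 lacZ-expressing T. cruzi Tulahuen C2C4 trypomastigotes. CPRG/Nonidet substrate was read at 540 nm, and IC50 came from sigmoidal curves.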

[4] = test system: Leishmania donovani strain MHOM/ET1671L82; experiment: Leishmaniasis in vitro screening model (axenic amastigotes, Alamar Blue); format: cell-based; conditions: for IC50: Leishmania donovani, read-out: L. donovani IC50
Summary of the method: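 Axenic L. donovani amastigotes (10^5 per well) from hamster spleen, grown at 37° C in SM medium pH 5.4 with 10% FBS, 5% CO2, exposed to serial 3-fold compound dilutions (30 to 0.041 μg/mL) for 72 h. Alamar Blue added for 2 h, fluorescence read (ex 536/em 588 nm); IC50 from sigmoidal curve versus control cultures.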

## Fc1cc(B(Oc2cccc3cccnc23)c2ccc(Cl)cc2)cc(C(F)(F)F)c1 [Compound 47, (4-Chlorophenyl)(3-fluoro-5-trifluoromethylphenyl)borinic acid quinolin-8-yl ester]
[1]
  IC50: 0.5 µg/mL (≈ 1.16 µM)
[2]
  IC50: 2.07 µg/mL (≈ 4.82 µM)
[3]
  IC50: 1.7 µg/mL (≈ 3.96 µM)
[4]
  IC50: 0.51 µg/mL (≈ 1.19 µM)

## Cc1cc(B(Oc2cccc3cccnc23)c2cccc(C#N)c2)ccc1Cl [Compound 31, (4-Chloro-3-methylphenyl)(3-cyanophenyl)borinic acid quinolin-8-yl ester]
[1]
  IC50: 0.28 µg/mL (≈ 0.732 µM)
[2]
  IC50: 1.83 µg/mL (≈ 4.78 µM)
[3]
  IC50: 0.79 µg/mL (≈ 2.06 µM)
[4]
  IC50: 0.83 µg/mL (≈ 2.17 µM)

## N#Cc1ccc(B(Oc2cccc3cccnc23)c2cc(F)cc(C(F)(F)F)c2)cc1 [Compound 122]
[1]
  T. b. rhodesiense IC50: 0.4 µg/mL
[2]
  P. falciparum IC50: 4.577 µg/mL
[3]
  T. cruzi IC50: 4.55 µg/mL
[4]
  L. donovani IC50: 0.45 µg/mL

## Fc1cccc(B(Oc2cccc3cccnc23)c2cccc(Cl)c2)c1 [Compound 17, (3-Chlorophenyl)(3-fluorophenyl)borinic acid quinolin-8-yl ester]
[1]
  IC50: 0.18 µg/mL (≈ 0.498 µM)
[2]
  IC50: 1.77 µg/mL (≈ 4.89 µM)
[3]
  IC50: 1.06 µg/mL (≈ 2.95 µM)
[4]
  IC50: 0.42 µg/mL (≈ 1.16 µM)

## Fc1cccc(B(Oc2cccc3cccnc23)c2ccc(Cl)cc2)c1F [Compound 42, (4-Chlorophenyl)(2,3-difluorophenyl)borinic acid quinolin-8-yl ester]
[1]
  IC50: 0.47 µg/mL (≈ 1.24 µM)
[2]
  IC50: 1.83 µg/mL (≈ 4.82 µM)
[3]
  IC50: 1.04 µg/mL (≈ 2.75 µM)
[4]
  IC50: 0.43 µg/mL (≈ 1.13 µM)

## N#Cc1cccc(B(Oc2cccc3cccnc23)c2cccc(F)c2)c1 [Compound 29, (3-Cyanophenyl)(3-fluorophenyl)borinic acid quinolin-8-yl ester]
[1]
  IC50: 0.33 µg/mL (≈ 0.937 µM)
[2]
  IC50: 1.83 µg/mL (≈ 5.2 µM)
[3]
  IC50: 0.68 µg/mL (≈ 1.93 µM)
[4]
  IC50: 0.4 µg/mL (≈ 1.14 µM)

## CSc1cccc(B(Oc2cccc3cccnc23)c2cccc(SC)c2)c1 [Compound 87]
[1]
  T. b. rhodesiense IC50: 0.3 µg/mL
[2]
  P. falciparum IC50: 4.632 µg/mL
[3]
  T. cruzi IC50: 3.2 µg/mL
[4]
  L. donovani IC50: 0.39 µg/mL

## Cc1cc(B(Oc2cccc3cccnc23)c2ccc(C#N)cc2)ccc1Cl [Compound 34, (4-Chloro-3-methylphenyl)(4-cyanophenyl)borinic acid quinolin-8-yl ester]
[1]
  IC50: 0.23 µg/mL (≈ 0.601 µM)
[2]
  IC50: 1.39 µg/mL (≈ 3.63 µM)
[3]
  IC50: 0.82 µg/mL (≈ 2.14 µM)
[4]
  IC50: 0.07 µg/mL (≈ 0.183 µM)

## C=CB(Oc1cccc2cccnc12)c1ccc(F)c(Cl)c1 [Compound 116]
[1]
  T. b. rhodesiense IC50: 0.5865 µg/mL
[2]
  P. falciparum IC50: 3.95 µg/mL
[3]
  T. cruzi IC50: 3.65 µg/mL
[4]
  L. donovani IC50: >30 µg/mL

## Cc1ccc2c(Cl)cc(Cl)c(OB(c3ccc(Cl)cc3)c3ccc(Cl)cc3)c2n1 [Compound 80]
[1]
  T. b. rhodesiense IC50: 1.06 µg/mL
[2]
  P. falciparum IC50: 1.71 µg/mL
[3]
  T. cruzi IC50: 1.315 µg/mL
[4]
  L. donovani IC50: 0.12 µg/mL

## O=C(OB(c1cccnc1)c1cccc(Cl)c1)c1ncccc1O [Compound 70]
[1]
  T. b. rhodesiense IC50: 38.3 µg/mL
[2]
  P. falciparum IC50: >5 µg/mL
[3]
  T. cruzi IC50: 28.2 µg/mL
[4]
  L. donovani IC50: 18.3 µg/mL

## C=CB(Oc1cccc2cccnc12)c1cccnc1 [Compound 49, (3-Pyridyl)vinylborinic acid 8-hydroxyquinoline ester]
[1]
  T. b. rhodesiense IC50: 0.2185 µg/mL
[2]
  P. falciparum IC50: 1.58 µg/mL
[3]
  T. cruzi IC50: 1.345 µg/mL
[4]
  L. donovani IC50: 0.45 µg/mL

## Fc1ccc(B(Oc2cccc3cccnc23)c2ccc(Cl)cc2)cc1 [Compound 15, (4-chlorophenyl)(4-fluorophenyl) borinic acid quinolin-8-yl ester]
[1]
  IC50: 0.28 µg/mL (≈ 0.774 µM)
[2]
  IC50: 1.82 µg/mL (≈ 5.03 µM)
[3]
  IC50: 0.906 µg/mL (≈ 2.51 µM)
[4]
  IC50: 0.5 µg/mL (≈ 1.38 µM)

## Cc1ccccc1B(Oc1cccc2cccnc12)c1cccc(Cl)c1 [Compound 25, (3-Chlorophenyl)(2-methylphenyl)borinic acid quinolin-8-yl ester]
[1]
  IC50: 0.295 µg/mL (≈ 0.825 µM)
[2]
  IC50: 1.81 µg/mL (≈ 5.06 µM)
[3]
  IC50: 0.905 µg/mL (≈ 2.53 µM)
[4]
  IC50: 0.41 µg/mL (≈ 1.15 µM)

## Nc1cccc(C(=O)OB(c2ccc(Cl)cc2)c2ccc(Cl)cc2)n1 [Compound 131]
[1]
  T. b. rhodesiense IC50: 7.6 µg/mL
[2]
  P. falciparum IC50: 0.6855 µg/mL
[3]
  T. cruzi IC50: 0.0535 µg/mL
[4]
  L. donovani IC50: 0.24 µg/mL
